Results: patent publication US8067589B2, “Heterocyclic compounds useful in treating diseases and conditions” (Pfizer Inc, priority 2007, dated 2011)

Target: human recombinant H-PGDS (Homo sapiens, UniProt O60760)
Assay: Fluoresecence Intensity h-PGDSTBA Enzyme Assay
Settings: IC50, 5.0 μM PGH2, 2.5 mM L-Glutathione, 10 min preincubation, 4-parameter fit, highest inhibitor concentration typically 1 μM

Sequence of human recombinant H-PGDS (O60760 whole entry): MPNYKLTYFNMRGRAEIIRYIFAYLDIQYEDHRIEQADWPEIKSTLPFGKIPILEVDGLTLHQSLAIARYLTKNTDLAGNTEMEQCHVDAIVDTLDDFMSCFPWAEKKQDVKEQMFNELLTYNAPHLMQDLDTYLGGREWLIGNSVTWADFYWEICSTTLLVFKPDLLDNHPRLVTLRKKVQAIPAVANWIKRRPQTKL

Row | IC50 | SMILES
1 | 1.84 nM | O=C(NC1CCN(CC(F)(F)F)CC1)c1cnc(-c2cc(F)ccc2F)nc1 [Example 73, 2-(2,5-Difluorophenyl)-N-[1-(2,2,2-trifluoroethyl)piperidin-4-yl]pyrimidine-5-carboxamide]
2 | 0.379 nM | CN1CCc2nc(N3CCC(NC(=O)c4cnc(-c5cccc(F)c5)nc4)C3)ncc2C1 (stereo not drawn) [Example 78, 2-(3-Fluorophenyl)-N-[1-(6-methyl-5,6,7,8-tetrahydropyrido[4,3-d]pyrimidin-2-yl)pyrrolidin-3-yl]pyrimidine-5-carboxamide]
3 | 2 nM | CCCN1CCC(NC(=O)c2cnc(-c3ccccc3)nc2)CC1 [Example 10, 2-Phenyl-N-(1-propylpiperidin-4-yl) pyrimidine-5-carboxamide]
4 | 0.373 nM | CCC(CC)N1CCC(NC(=O)c2cnc(-c3cccc(F)c3)nc2)CC1 [Example 68, N-[1-(1-Ethylpropyl)piperidin-4-yl]-2-(3-fluorophenyl)pyrimidine-5-carboxamide]
5 | 0.658 nM | CCOC(=O)N1CCC(NC(=O)c2cnc(-c3cccc(F)c3)nc2)C1 (stereo not drawn) [Example 82, Ethyl 3-({[2-(3-fluorophenyl)pyrimidin-5-yl]carbonyl}amino)pyrrolidine-1-carboxylate]
6 | 1.92 nM | CCOC(=O)N1CCC(NC(=O)c2cnc(-c3cccc(F)c3)nc2)C1 (single isomer, unassigned) [Example 82a, Ethyl 3-(2-(3-fluorophenyl)pyrimidine-5-carboxamido)pyrrolidine-1-carboxylate]
7 | 64 nM | CC(=O)c1cccc(-c2ncc(C(=O)NC3CCN(C(=O)C(C)(C)C)CC3)cn2)c1 [Example 142, 2-(3-Acetylphenyl)-N-[1-(2,2-dimethylpropanoyl)piperidin-4-yl]pyrimidine-5-carboxamide]
8 | 0.346 nM | O=C(N[C@@H]1CCN(Cc2ccccc2)C1)c1cnc(-c2cccc(F)c2)nc1 [Example 79, N-[(3R)-1-Benzylpyrrolidin-3-yl]-2-(3-fluorophenyl)pyrimidine-5-carboxamide]
9 | 1.02 nM | Cc1nc(N2CCC(NC(=O)c3cnc(-c4cccc(F)c4)nc3)CC2)[nH]c(=O)c1CCO [Example 60, 2-(3-Fluorophenyl)-N-{1-[5-(2-hydroxyethyl)-4-methyl-6-oxo-1,6-dihydropyrimidin-2-yl]piperidin-4-yl}pyrimidine-5-carboxamide]
10 | 0.58 nM | CCCCN1CCC(NC(=O)c2cnc(-c3cccc(F)c3)nc2)CC1 [Example 61, N-(1-Butylpiperidin-4-yl)-2-(3-fluorophenyl)pyrimidine-5-carboxamide]
11 | 0.16 nM | O=C(NC1CCN(Cc2ccccc2F)CC1)c1cnc(-c2cccc(F)c2)nc1 [Example 64, N-[1-(2-Fluorobenzyl)piperidin-4-yl]-2-(3-fluorophenyl)pyrimidine-5-carboxamide]
12 | 9460 nM | CC(=O)c1ccccc1-c1ncc(C(=O)NC2CCN(CC(F)(F)F)CC2)cn1 [Example 119, 2-(2-Acetylphenyl)-N-[1-(2,2,2-trifluoroethyl)piperidin-4-yl]pyrimidine-5-carboxamide]

Second part, the molecule before the results:

Row | SMILES | IC50
13 | COc1cccc(OC)c1CN1CCC(NC(=O)c2cnc(-c3ccccc3)nc2N)CC1 [Example 17, 4-Amino-N-[1-(2,6-dimethoxybenzyl)piperidin-4-yl]-2-phenylpyrimidine-5-carboxamide] | 19.3 nM
14 | O=C(N[C@@H]1CN(c2ncccn2)C[C@@H]1O)c1cnc(-c2cccc(F)c2)nc1 (relative stereo) [Example 98, Cis-2-(3-Fluorophenyl)-N-[4-hydroxy-1-pyrimidin-2-ylpyrrolidin-3-yl]pyrimidine-5-carboxamide] | 1.82 nM
15 | O=C(NC1CCN(C(COc2ccc(F)c(F)c2F)c2ccccc2)CC1)c1cnc(-c2cccc(F)c2)nc1 (stereo not drawn) [Example 55, 2-(3-Fluorophenyl)-N-{1-[1-phenyl-2-(2,3,4-trifluorophenoxy)ethyl]piperidin-4-yl}pyrimidine-5-carboxamide] | 45.4 nM
16 | Cc1nc(-c2ccccc2)ncc1C(=O)NC1CCN(C)CC1 [Example 4, 4-Methyl-N-(1-methylpiperid-4-yl)-2-phenylpyrimidine-5-carboxamide] | 302 nM
17 | CC(C)CN1CCC(NC(=O)c2cnc(-c3ccccc3)nc2N)CC1 [Example 15, 4-Amino-N-(1-isobutylpiperidin-4-yl)-2-phenyl-pyrimidine-5-carboxamide] | ≥ 1000 nM
18 | O=C(NC1CCN(C(COc2c(F)cccc2Cl)c2ccccc2)CC1)c1cnc(-c2cccc(F)c2)nc1 (stereo not drawn) [Example 29, N-{1-[2-(2-Chloro-6-fluorophenoxy)-1-phenylethyl]piperidin-4-yl}-2-(3-fluorophenyl)pyrimidine-5-carboxamide] | 11.4 nM
19 | N#Cc1ccccc1C(=O)c1cccnc1N1C[C@H](O)[C@H](NC(=O)c2cnc(-c3cccc(F)c3)nc2)C1 (relative stereo) [Example 97, Cis-N-{1-[3-(2-Cyanobenzoyl)pyridin-2-yl]-4-hydroxypyrrolidin-3-yl}-2-(3-fluorophenyl)pyrimidine-5-carboxamide] | 3.83 nM
20 | COc1cccc(OC)c1CN1CCC(NC(=O)c2cnc(-c3ccccc3)nc2)CC1 [Example 14, N-[1-(2,6-Dimethoxybenzyl)piperidin-4-yl]-2-phenylpyrimidine-5-carboxamide] | 0.483 nM
21 | N#Cc1ccc(OCC(c2ccccc2)N2CCC(NC(=O)c3cnc(-c4cccc(F)c4)nc3)CC2)cc1F (stereo not drawn) [Example 28, N-{1-[2-(4-Cyano-3-fluorophenoxy)-1-phenylethyl]piperidin-4-yl}-2-(3-fluorophenyl)pyrimidine-5-carboxamide] | 4.45 nM
22 | Cc1ccc(Cl)c(OCC(c2ccccc2)N2CCC(NC(=O)c3cnc(-c4cccc(F)c4)nc3)CC2)c1F (stereo not drawn) [Example 43, N-{1-[2-(6-Chloro-2-fluoro-3-methylphenoxy)-1-phenylethyl]piperidin-4-yl}-2-(3-fluorophenyl)pyrimidine-5-carboxamide] | 35 nM
23 | CN1CC[C@@H](NC(=O)c2cnc(-c3cccc(F)c3)nc2)[C@@H](Cc2ccccc2)C1 [Example 72, N-[(3S,4R)-3-Benzyl-1-methylpiperidin-4-yl]-2-(3-fluorophenyl)pyrimidine-5-carboxamide] | 30 nM
24 | O=C(NC1CCN(C(COc2ccc(F)cc2F)c2ccccc2)CC1)c1cnc(-c2cccc(F)c2)nc1 (stereo not drawn) [Example 47, N-{1-[2-(2,4-Difluorophenoxy)-1-phenylethyl]piperidin-4-yl}-2-(3-fluorophenyl)pyrimidine-5-carboxamide] | 10.2 nM
25 | CCc1ccc(OCC(c2ccccc2)N2CCC(NC(=O)c3cnc(-c4cccc(F)c4)nc3)CC2)cc1 (stereo not drawn) [Example 46, N-{1-[2-(4-Ethylphenoxy)-1-phenylethyl]piperidin-4-yl}-2-(3-fluorophenyl)pyrimidine-5-carboxamide] | 23.8 nM
26 | O=C(NC1CCN(C(COc2cc(F)ccc2F)c2ccccc2)CC1)c1cnc(-c2cccc(F)c2)nc1 (stereo not drawn) [Example 51, N-{1-[2-(2,5-Difluorophenoxy)-1-phenylethyl]piperidin-4-yl}-2-(3-fluorophenyl)pyrimidine-5-carboxamide] | 10 nM
27 | CCCCOCCCN1CCC(NC(=O)c2cnc(-c3cccc(F)c3)nc2)C1=O (stereo not drawn) [Example 91, N-[1-(3-Butoxypropyl)-2-oxopyrrolidin-3-yl]-2-(3-fluorophenyl)pyrimidine-5-carboxamide] | 2.8 nM
